What follows are compounds tested against MAPK8 (human) (UniProt P45983) (assay: radiometric filter-binding kinase assay, Kinase HotSpot). Conditions: compound 0.5 µM; ATP 10 µM.

In order of falling residual activity:
1. CCN1/C(=C/C(C)=O)Sc2ccc(OC)cc21  102%
2. Clc1ccc(Nc2nnc(Cc3ccncc3)c3ccccc23)cc1  98.2%
3. CS(=O)c1ccc(-c2nc(-c3ccc(F)cc3)c(-c3ccncc3)[nH]2)cc1 (centres undefined)  96.1%
4. COc1cc2ncnc(Nc3ccc(F)c(Cl)c3)c2cc1OCCCN1CCOCC1  93.1%

These compounds were tested against TSSK2 (human) (UniProt Q96PF2) in the same assay as above. Conditions: compound 0.5 µM; ATP 10 µM.

In order of rising residual activity:
1. Clc1ccc(Nc2nnc(Cc3ccncc3)c3ccccc23)cc1  82.8%
2. C#Cc1cccc(Nc2ncnc3cc(OCCOC)c(OCCOC)cc23)c1  87.6%
3. COc1cc2ncnc(Nc3ccc(F)c(Cl)c3)c2cc1OCCCN1CCOCC1  91.5%
4. CS(=O)c1ccc(-c2nc(-c3ccc(F)cc3)c(-c3ccncc3)[nH]2)cc1 (centres undefined)  95.7%
5. CCN1/C(=C/C(C)=O)Sc2ccc(OC)cc21  106%

The compounds below were run against INSRR (human) (UniProt P14616) in the same assay as above. Conditions: compound 0.5 µM; ATP 10 µM.

In order of falling residual activity:
1. COc1cc2ncnc(Nc3ccc(F)c(Cl)c3)c2cc1OCCCN1CCOCC1  112%
2. C#Cc1cccc(Nc2ncnc3cc(OCCOC)c(OCCOC)cc23)c1  111%
3. CS(=O)c1ccc(-c2nc(-c3ccc(F)cc3)c(-c3ccncc3)[nH]2)cc1 (centres undefined)  100%
4. Clc1ccc(Nc2nnc(Cc3ccncc3)c3ccccc23)cc1  93.5%
5. CCN1/C(=C/C(C)=O)Sc2ccc(OC)cc21  91.6%

What follows are compounds tested against MAP3K3 (human) (UniProt Q99759) in the same assay as above. Conditions: compound 0.5 µM; ATP 10 µM.

In order of falling residual activity:
1. Clc1ccc(Nc2nnc(Cc3ccncc3)c3ccccc23)cc1  118%
2. CCN1/C(=C/C(C)=O)Sc2ccc(OC)cc21  114%
3. COc1cc2ncnc(Nc3ccc(F)c(Cl)c3)c2cc1OCCCN1CCOCC1  107%
4. CS(=O)c1ccc(-c2nc(-c3ccc(F)cc3)c(-c3ccncc3)[nH]2)cc1 (centres undefined)  102%

These compounds were tested against CDK5 CDK5R1 p25 (human) (UniProt Q00535+Q15078) in the same assay as above. Conditions: compound 0.5 µM; ATP 10 µM.
Sequence of CDK5 CDK5R1 p25 (human) (Q00535 whole entry, looked up): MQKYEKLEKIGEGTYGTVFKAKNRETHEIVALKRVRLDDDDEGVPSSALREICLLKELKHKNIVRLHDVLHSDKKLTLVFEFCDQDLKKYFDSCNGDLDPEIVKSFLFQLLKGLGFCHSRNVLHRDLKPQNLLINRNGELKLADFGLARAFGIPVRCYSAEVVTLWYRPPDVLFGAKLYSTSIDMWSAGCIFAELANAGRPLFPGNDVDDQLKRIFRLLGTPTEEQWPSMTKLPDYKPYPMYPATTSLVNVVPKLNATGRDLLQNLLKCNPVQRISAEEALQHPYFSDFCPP
Sequence of CDK5 CDK5R1 p25 (human) (Q15078 whole entry, looked up): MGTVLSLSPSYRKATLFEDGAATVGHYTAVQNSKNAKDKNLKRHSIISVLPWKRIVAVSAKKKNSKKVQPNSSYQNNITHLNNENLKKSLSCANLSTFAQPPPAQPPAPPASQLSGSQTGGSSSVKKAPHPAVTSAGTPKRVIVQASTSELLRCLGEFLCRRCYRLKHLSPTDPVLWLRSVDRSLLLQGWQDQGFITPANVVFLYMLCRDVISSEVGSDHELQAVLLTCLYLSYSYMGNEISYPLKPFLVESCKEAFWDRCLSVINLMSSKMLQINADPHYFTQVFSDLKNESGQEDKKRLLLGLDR

In order of rising residual activity:
1. CCN1/C(=C/C(C)=O)Sc2ccc(OC)cc21  87.9%
2. C#Cc1cccc(Nc2ncnc3cc(OCCOC)c(OCCOC)cc23)c1  90.5%
3. CS(=O)c1ccc(-c2nc(-c3ccc(F)cc3)c(-c3ccncc3)[nH]2)cc1 (centres undefined)  90.6%
4. Clc1ccc(Nc2nnc(Cc3ccncc3)c3ccccc23)cc1  91.3%
5. COc1cc2ncnc(Nc3ccc(F)c(Cl)c3)c2cc1OCCCN1CCOCC1  95.4%

What follows are compounds tested against PRKX (human) (UniProt P51817) in the same assay as above. Conditions: compound 0.5 µM; ATP 10 µM.

In order of rising residual activity:
1. CCN1/C(=C/C(C)=O)Sc2ccc(OC)cc21  96.6%
2. CS(=O)c1ccc(-c2nc(-c3ccc(F)cc3)c(-c3ccncc3)[nH]2)cc1 (centres undefined)  99.3%
3. C#Cc1cccc(Nc2ncnc3cc(OCCOC)c(OCCOC)cc23)c1  111%
4. Clc1ccc(Nc2nnc(Cc3ccncc3)c3ccccc23)cc1  152%

Each compound was assayed against STK16 (human) (UniProt O75716) in the same assay as above. Conditions: compound 0.5 µM; ATP 10 µM.

In order of falling residual activity:
1. CS(=O)c1ccc(-c2nc(-c3ccc(F)cc3)c(-c3ccncc3)[nH]2)cc1 (centres undefined)  111%
2. C#Cc1cccc(Nc2ncnc3cc(OCCOC)c(OCCOC)cc23)c1  98%
3. COc1cc2ncnc(Nc3ccc(F)c(Cl)c3)c2cc1OCCCN1CCOCC1  96.8%
4. Clc1ccc(Nc2nnc(Cc3ccncc3)c3ccccc23)cc1  93.5%
5. CCN1/C(=C/C(C)=O)Sc2ccc(OC)cc21  87.4%

Each compound was assayed against SYK (human) (UniProt P43405) in the same assay as above. Conditions: compound 0.5 µM; ATP 10 µM.

In order of rising residual activity:
1. CCN1/C(=C/C(C)=O)Sc2ccc(OC)cc21  94.8%
2. CS(=O)c1ccc(-c2nc(-c3ccc(F)cc3)c(-c3ccncc3)[nH]2)cc1 (centres undefined)  98%
3. COc1cc2ncnc(Nc3ccc(F)c(Cl)c3)c2cc1OCCCN1CCOCC1  104%
4. Clc1ccc(Nc2nnc(Cc3ccncc3)c3ccccc23)cc1  114%

What follows are compounds tested against MAPKAPK3 (human) (UniProt Q16644) in the same assay as above. Conditions: compound 0.5 µM; ATP 10 µM.

In order of falling residual activity:
1. COc1cc2ncnc(Nc3ccc(F)c(Cl)c3)c2cc1OCCCN1CCOCC1  99.6%
2. Clc1ccc(Nc2nnc(Cc3ccncc3)c3ccccc23)cc1  98.9%
3. C#Cc1cccc(Nc2ncnc3cc(OCCOC)c(OCCOC)cc23)c1  98.1%
4. CCN1/C(=C/C(C)=O)Sc2ccc(OC)cc21  90.1%

What follows are compounds tested against CAMK2G (human) (UniProt Q13555) in the same assay as above. Conditions: compound 0.5 µM; ATP 10 µM.
Sequence of CAMK2G (human) (Q13555 whole entry, looked up): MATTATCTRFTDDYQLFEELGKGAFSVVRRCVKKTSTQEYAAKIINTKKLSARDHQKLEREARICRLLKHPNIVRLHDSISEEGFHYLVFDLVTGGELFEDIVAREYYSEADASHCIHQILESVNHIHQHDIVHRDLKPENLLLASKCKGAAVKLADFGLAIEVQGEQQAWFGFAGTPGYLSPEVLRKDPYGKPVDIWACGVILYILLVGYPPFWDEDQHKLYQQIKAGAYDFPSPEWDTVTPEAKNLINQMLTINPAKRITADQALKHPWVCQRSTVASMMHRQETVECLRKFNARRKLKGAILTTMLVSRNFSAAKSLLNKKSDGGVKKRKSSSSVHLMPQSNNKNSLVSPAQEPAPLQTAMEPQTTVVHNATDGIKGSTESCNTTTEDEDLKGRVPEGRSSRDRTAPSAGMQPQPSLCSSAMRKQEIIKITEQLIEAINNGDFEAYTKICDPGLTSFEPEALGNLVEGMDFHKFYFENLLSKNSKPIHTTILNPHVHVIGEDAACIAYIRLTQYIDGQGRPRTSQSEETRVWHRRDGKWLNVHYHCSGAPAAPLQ

In order of rising residual activity:
1. CS(=O)c1ccc(-c2nc(-c3ccc(F)cc3)c(-c3ccncc3)[nH]2)cc1 (centres undefined)  82.2%
2. CCN1/C(=C/C(C)=O)Sc2ccc(OC)cc21  90.4%
3. C#Cc1cccc(Nc2ncnc3cc(OCCOC)c(OCCOC)cc23)c1  115%
4. Clc1ccc(Nc2nnc(Cc3ccncc3)c3ccccc23)cc1  115%
5. COc1cc2ncnc(Nc3ccc(F)c(Cl)c3)c2cc1OCCCN1CCOCC1  128%

Each compound was assayed against NLK (human) (UniProt Q9UBE8) in the same assay as above. Conditions: compound 0.5 µM; ATP 10 µM.
Sequence of NLK (human) (Q9UBE8 whole entry, looked up): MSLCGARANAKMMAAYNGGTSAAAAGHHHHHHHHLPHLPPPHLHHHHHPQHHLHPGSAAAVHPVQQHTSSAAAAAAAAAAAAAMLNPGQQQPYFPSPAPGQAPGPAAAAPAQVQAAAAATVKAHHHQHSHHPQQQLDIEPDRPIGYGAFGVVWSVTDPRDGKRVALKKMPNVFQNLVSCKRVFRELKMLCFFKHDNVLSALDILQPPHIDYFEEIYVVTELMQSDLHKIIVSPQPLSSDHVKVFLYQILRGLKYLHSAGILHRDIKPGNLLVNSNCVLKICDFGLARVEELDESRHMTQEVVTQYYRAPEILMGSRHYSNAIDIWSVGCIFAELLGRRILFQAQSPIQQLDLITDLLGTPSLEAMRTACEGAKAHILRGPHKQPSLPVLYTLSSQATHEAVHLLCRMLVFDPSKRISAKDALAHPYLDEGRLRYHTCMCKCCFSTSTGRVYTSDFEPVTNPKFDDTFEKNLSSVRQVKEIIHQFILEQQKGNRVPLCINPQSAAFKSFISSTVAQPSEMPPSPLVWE

In order of falling residual activity:
1. CCN1/C(=C/C(C)=O)Sc2ccc(OC)cc21  103%
2. C#Cc1cccc(Nc2ncnc3cc(OCCOC)c(OCCOC)cc23)c1  103%
3. Clc1ccc(Nc2nnc(Cc3ccncc3)c3ccccc23)cc1  99.3%
4. COc1cc2ncnc(Nc3ccc(F)c(Cl)c3)c2cc1OCCCN1CCOCC1  91.1%
5. CS(=O)c1ccc(-c2nc(-c3ccc(F)cc3)c(-c3ccncc3)[nH]2)cc1 (centres undefined)  53.8%

Each compound was assayed against GRK4 (human) (UniProt P32298) in the same assay as above. Conditions: compound 0.5 µM; ATP 10 µM.

In order of rising residual activity:
1. C#Cc1cccc(Nc2ncnc3cc(OCCOC)c(OCCOC)cc23)c1  89.6%
2. COc1cc2ncnc(Nc3ccc(F)c(Cl)c3)c2cc1OCCCN1CCOCC1  91%
3. Clc1ccc(Nc2nnc(Cc3ccncc3)c3ccccc23)cc1  91.3%
4. CS(=O)c1ccc(-c2nc(-c3ccc(F)cc3)c(-c3ccncc3)[nH]2)cc1 (centres undefined)  95.5%
5. CCN1/C(=C/C(C)=O)Sc2ccc(OC)cc21  96.2%

Each compound was assayed against CAMK1G (human) (UniProt Q96NX5) in the same assay as above. Conditions: compound 0.5 µM; ATP 10 µM.

In order of falling residual activity:
1. C#Cc1cccc(Nc2ncnc3cc(OCCOC)c(OCCOC)cc23)c1  111%
2. Clc1ccc(Nc2nnc(Cc3ccncc3)c3ccccc23)cc1  107%
3. COc1cc2ncnc(Nc3ccc(F)c(Cl)c3)c2cc1OCCCN1CCOCC1  103%
4. CCN1/C(=C/C(C)=O)Sc2ccc(OC)cc21  101%
5. CS(=O)c1ccc(-c2nc(-c3ccc(F)cc3)c(-c3ccncc3)[nH]2)cc1 (centres undefined)  99.3%

Each compound was assayed against NEK7 (human) (UniProt Q8TDX7) in the same assay as above. Conditions: compound 0.5 µM; ATP 10 µM.

In order of falling residual activity:
1. CS(=O)c1ccc(-c2nc(-c3ccc(F)cc3)c(-c3ccncc3)[nH]2)cc1 (centres undefined)  98.9%
2. C#Cc1cccc(Nc2ncnc3cc(OCCOC)c(OCCOC)cc23)c1  97.4%
3. COc1cc2ncnc(Nc3ccc(F)c(Cl)c3)c2cc1OCCCN1CCOCC1  96.9%
4. Clc1ccc(Nc2nnc(Cc3ccncc3)c3ccccc23)cc1  96.8%

Each compound was assayed against CDK4 CCND1 (human) (UniProt P24385+P11802) in the same assay as above. Conditions: compound 0.5 µM; ATP 10 µM.
Sequence of CDK4 CCND1 (human) (P11802 whole entry, looked up): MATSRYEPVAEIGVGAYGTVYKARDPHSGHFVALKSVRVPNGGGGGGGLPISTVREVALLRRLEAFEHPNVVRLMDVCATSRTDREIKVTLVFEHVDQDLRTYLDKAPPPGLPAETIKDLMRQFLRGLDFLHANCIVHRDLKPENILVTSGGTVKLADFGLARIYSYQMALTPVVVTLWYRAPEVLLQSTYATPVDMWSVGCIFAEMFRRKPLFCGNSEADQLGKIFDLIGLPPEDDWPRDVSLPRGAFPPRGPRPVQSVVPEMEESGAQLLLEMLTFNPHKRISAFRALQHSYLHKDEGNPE
Sequence of CDK4 CCND1 (human) (P24385 whole entry, looked up): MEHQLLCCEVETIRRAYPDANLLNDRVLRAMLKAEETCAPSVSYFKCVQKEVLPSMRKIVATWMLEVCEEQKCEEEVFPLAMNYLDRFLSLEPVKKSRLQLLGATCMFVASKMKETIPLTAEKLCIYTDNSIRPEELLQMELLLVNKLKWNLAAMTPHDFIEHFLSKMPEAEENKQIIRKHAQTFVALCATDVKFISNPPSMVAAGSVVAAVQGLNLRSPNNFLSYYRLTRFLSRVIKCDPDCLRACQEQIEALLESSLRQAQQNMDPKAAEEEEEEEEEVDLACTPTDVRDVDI

In order of rising residual activity:
1. CCN1/C(=C/C(C)=O)Sc2ccc(OC)cc21  92.1%
2. COc1cc2ncnc(Nc3ccc(F)c(Cl)c3)c2cc1OCCCN1CCOCC1  94.3%
3. C#Cc1cccc(Nc2ncnc3cc(OCCOC)c(OCCOC)cc23)c1  96%
4. Clc1ccc(Nc2nnc(Cc3ccncc3)c3ccccc23)cc1  96.6%
5. CS(=O)c1ccc(-c2nc(-c3ccc(F)cc3)c(-c3ccncc3)[nH]2)cc1 (centres undefined)  105%

These compounds were tested against STK25 (human) (UniProt O00506) in the same assay as above. Conditions: compound 0.5 µM; ATP 10 µM.
Sequence of STK25 (human) (O00506 whole entry, looked up): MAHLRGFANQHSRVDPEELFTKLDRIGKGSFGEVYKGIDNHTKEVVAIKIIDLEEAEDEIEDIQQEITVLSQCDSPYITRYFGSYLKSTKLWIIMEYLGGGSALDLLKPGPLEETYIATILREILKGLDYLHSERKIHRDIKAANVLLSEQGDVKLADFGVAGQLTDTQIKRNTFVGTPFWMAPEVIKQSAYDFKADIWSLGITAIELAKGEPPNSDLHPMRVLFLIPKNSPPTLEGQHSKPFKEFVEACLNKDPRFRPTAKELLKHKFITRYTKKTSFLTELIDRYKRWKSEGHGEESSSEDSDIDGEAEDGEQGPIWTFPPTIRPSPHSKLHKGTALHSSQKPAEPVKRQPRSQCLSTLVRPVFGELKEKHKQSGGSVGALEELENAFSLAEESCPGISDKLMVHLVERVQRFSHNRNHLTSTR

In order of falling residual activity:
1. CS(=O)c1ccc(-c2nc(-c3ccc(F)cc3)c(-c3ccncc3)[nH]2)cc1 (centres undefined)  111%
2. C#Cc1cccc(Nc2ncnc3cc(OCCOC)c(OCCOC)cc23)c1  99.4%
3. CCN1/C(=C/C(C)=O)Sc2ccc(OC)cc21  98%
4. COc1cc2ncnc(Nc3ccc(F)c(Cl)c3)c2cc1OCCCN1CCOCC1  97.4%
5. Clc1ccc(Nc2nnc(Cc3ccncc3)c3ccccc23)cc1  94%

The compounds below were run against MAPK3 (human) (UniProt P27361) in the same assay as above. Conditions: compound 0.5 µM; ATP 10 µM.
Sequence of MAPK3 (human) (P27361 whole entry, looked up): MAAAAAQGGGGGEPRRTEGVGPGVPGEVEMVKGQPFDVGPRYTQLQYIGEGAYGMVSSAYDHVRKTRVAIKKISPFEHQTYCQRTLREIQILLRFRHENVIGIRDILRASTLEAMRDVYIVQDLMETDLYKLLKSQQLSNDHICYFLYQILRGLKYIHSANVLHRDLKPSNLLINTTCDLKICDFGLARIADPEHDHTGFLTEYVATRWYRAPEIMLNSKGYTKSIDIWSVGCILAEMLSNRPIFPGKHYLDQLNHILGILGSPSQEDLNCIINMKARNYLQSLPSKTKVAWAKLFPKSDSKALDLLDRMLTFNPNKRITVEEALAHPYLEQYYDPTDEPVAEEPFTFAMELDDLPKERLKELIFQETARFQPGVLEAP

In order of rising residual activity:
1. Clc1ccc(Nc2nnc(Cc3ccncc3)c3ccccc23)cc1  94.7%
2. COc1cc2ncnc(Nc3ccc(F)c(Cl)c3)c2cc1OCCCN1CCOCC1  100%
3. C#Cc1cccc(Nc2ncnc3cc(OCCOC)c(OCCOC)cc23)c1  101%
4. CS(=O)c1ccc(-c2nc(-c3ccc(F)cc3)c(-c3ccncc3)[nH]2)cc1 (centres undefined)  101%
5. CCN1/C(=C/C(C)=O)Sc2ccc(OC)cc21  105%

Each compound was assayed against MAP4K2 (human) (UniProt Q12851) in the same assay as above. Conditions: compound 0.5 µM; ATP 10 µM.
Sequence of MAP4K2 (human) (Q12851 whole entry, looked up): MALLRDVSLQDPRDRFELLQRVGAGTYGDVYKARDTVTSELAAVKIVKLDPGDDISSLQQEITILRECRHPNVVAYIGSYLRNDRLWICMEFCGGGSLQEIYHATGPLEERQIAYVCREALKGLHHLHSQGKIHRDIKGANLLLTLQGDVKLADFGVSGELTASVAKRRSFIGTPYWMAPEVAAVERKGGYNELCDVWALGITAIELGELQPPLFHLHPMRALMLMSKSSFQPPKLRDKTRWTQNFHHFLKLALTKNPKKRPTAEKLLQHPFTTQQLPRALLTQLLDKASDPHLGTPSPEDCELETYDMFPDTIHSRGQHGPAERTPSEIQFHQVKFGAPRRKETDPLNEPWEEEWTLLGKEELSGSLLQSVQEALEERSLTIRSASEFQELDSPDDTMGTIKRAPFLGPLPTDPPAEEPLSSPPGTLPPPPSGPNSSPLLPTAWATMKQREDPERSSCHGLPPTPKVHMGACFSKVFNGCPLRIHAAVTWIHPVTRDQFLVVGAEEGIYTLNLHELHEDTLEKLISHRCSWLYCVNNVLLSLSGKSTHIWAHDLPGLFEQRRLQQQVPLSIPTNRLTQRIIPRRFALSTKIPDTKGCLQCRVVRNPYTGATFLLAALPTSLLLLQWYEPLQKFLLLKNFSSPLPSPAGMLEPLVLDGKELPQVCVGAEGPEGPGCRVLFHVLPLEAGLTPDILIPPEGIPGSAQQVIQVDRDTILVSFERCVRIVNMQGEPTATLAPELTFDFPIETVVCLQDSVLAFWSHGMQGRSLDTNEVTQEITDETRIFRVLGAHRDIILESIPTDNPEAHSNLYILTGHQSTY

In order of falling residual activity:
1. Clc1ccc(Nc2nnc(Cc3ccncc3)c3ccccc23)cc1  107%
2. CS(=O)c1ccc(-c2nc(-c3ccc(F)cc3)c(-c3ccncc3)[nH]2)cc1 (centres undefined)  106%
3. CCN1/C(=C/C(C)=O)Sc2ccc(OC)cc21  105%
4. C#Cc1cccc(Nc2ncnc3cc(OCCOC)c(OCCOC)cc23)c1  105%
5. COc1cc2ncnc(Nc3ccc(F)c(Cl)c3)c2cc1OCCCN1CCOCC1  104%

These compounds were tested against CLK1 (human) (UniProt P49759) in the same assay as above. Conditions: compound 0.5 µM; ATP 10 µM.
Sequence of CLK1 (human) (P49759 whole entry, looked up): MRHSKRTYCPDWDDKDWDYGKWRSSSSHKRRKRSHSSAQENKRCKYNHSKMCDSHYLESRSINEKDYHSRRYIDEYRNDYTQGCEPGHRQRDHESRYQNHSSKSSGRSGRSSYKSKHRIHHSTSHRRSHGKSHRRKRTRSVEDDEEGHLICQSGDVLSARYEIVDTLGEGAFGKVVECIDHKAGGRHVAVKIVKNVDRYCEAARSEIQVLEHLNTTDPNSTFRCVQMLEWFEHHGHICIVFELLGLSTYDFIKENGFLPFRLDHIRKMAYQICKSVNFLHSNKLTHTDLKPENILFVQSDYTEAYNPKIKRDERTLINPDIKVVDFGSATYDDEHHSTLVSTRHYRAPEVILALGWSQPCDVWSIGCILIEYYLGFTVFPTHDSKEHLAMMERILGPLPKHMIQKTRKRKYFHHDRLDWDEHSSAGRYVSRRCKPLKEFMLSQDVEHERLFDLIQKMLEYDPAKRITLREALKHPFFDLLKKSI

In order of rising residual activity:
1. CS(=O)c1ccc(-c2nc(-c3ccc(F)cc3)c(-c3ccncc3)[nH]2)cc1 (centres undefined)  101%
2. COc1cc2ncnc(Nc3ccc(F)c(Cl)c3)c2cc1OCCCN1CCOCC1  105%
3. C#Cc1cccc(Nc2ncnc3cc(OCCOC)c(OCCOC)cc23)c1  107%
4. Clc1ccc(Nc2nnc(Cc3ccncc3)c3ccccc23)cc1  110%

What follows are compounds tested against STK33 (human) (UniProt Q9BYT3) in the same assay as above. Conditions: compound 0.5 µM; ATP 10 µM.
Sequence of STK33 (human) (Q9BYT3 whole entry, looked up): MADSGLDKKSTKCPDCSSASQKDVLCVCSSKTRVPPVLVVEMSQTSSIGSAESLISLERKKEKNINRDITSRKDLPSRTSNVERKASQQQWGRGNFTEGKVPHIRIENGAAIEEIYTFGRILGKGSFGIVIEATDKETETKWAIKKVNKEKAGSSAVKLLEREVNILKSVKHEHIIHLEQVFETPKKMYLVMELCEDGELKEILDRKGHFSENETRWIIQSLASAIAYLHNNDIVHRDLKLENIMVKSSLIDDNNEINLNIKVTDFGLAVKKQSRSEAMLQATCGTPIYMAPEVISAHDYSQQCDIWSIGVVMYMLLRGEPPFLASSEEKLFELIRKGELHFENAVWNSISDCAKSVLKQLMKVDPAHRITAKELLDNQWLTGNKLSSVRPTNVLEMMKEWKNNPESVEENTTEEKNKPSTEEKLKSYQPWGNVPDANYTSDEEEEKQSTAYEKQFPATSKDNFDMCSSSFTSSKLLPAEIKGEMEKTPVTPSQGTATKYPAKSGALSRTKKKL

In order of rising residual activity:
1. CCN1/C(=C/C(C)=O)Sc2ccc(OC)cc21  57.4%
2. COc1cc2ncnc(Nc3ccc(F)c(Cl)c3)c2cc1OCCCN1CCOCC1  90.4%
3. C#Cc1cccc(Nc2ncnc3cc(OCCOC)c(OCCOC)cc23)c1  90.8%
4. Clc1ccc(Nc2nnc(Cc3ccncc3)c3ccccc23)cc1  94.2%
5. CS(=O)c1ccc(-c2nc(-c3ccc(F)cc3)c(-c3ccncc3)[nH]2)cc1 (centres undefined)  98.1%

What follows are compounds tested against DAPK3 (human) (UniProt O43293) in the same assay as above. Conditions: compound 0.5 µM; ATP 10 µM.

CCN1/C(=C/C(C)=O)Sc2ccc(OC)cc21 was tested, and the residual activity was 98.7%.

Reference: the kinase profiling compilation of Christmann-Franck et al. (2016)
